Source: patent US11357777B2, “Use of sGC stimulators for the treatment of nonalcoholic steatohepatitis (NASH)” (Cyclerion Therapeutics, Inc., priority 2016, dated 2022)

Test system: mice fed a high-fat diet deficient in choline and methionine
Assay: Mouse on a methionine/choline deficient high-fat diet (MCD-HFD)
Assay type: in vivo
Conditions: for macrophage numbers, inflammatory infiltrate by F4/80 immunohistochemistry: statistically significant; for levels of mRNA expression for all markers of liver fibrosis / levels of mRNA expression for all markers of liver inflammation: vs control Group II
Experimental: The study was performed in mice fed a high-fat diet deficient in choline and methionine (MCD-HFD or MCD diet), a model that reproduces the clinical manifestations of human steatohepatitis and fibrosis in mice. These mice received the sGC stimulator Compound B prophylactically (at two doses, 1 and 3 mg/kg/day in the food), starting at the same time as the start of the administration of the high-fat diet deficient in choline/methionine, and before animals started manifesting clinical signs of steatohepatitis.
The prophylactic treatment with Compound B proceeded for a total of 9 weeks simultaneously with the high-fat diet deficient in choline/methionine administration. At the end of the treatment, the degree of inflammation was assessed in the liver by determining levels of gene expression for IL-6, TNFα, IL-10, MCP-1β, IL-1 and IL-Ira, by real-time PCR. Inflammation levels were also determined by assessing inflammatory infiltrate by F4/80 immunohistochemistry, and necroinflammation was assessed by hematoxylin-eosin staining. Liver fibrosis was determined by measuring levels of gene expression for collagen type I and II, MMP-2, TIMP-1 and TGFβ1 at the mRNA level. Histological analysis was carried out of tissue sections stained with Masson's trichrome and Sirius Red.
Group I (n=5): Chow Control group received a matching sucrose diet equivalent to the high-fat diet (HFD) for 9 weeks.
Group II (n=15): Choline/methionine deficient HFD Control group (MCD control group) received a Choline/methionine deficient HFD diet for 9 weeks.
Group III (n=10): Choline/methionine deficient HFD for 9 weeks supplemented with Compound B dosed in food (1 mg/kg body weight/day). (IW1 group)
Group IV (n=10): Choline/methionine deficient HFD for 9 weeks supplemented with Compound B dosed in food (3 mg/kg body weight/day). (IW3 group)
After treatment, animals were sacrificed and liver and blood samples were collected. The effects of the sGC stimulator on liver weight, steatosis, inflammation and fibrosis were evaluated as follows:
Total RNA was obtained with the RNAqueous kit. RNA concentrations were assessed in a UV-spectrophotometer and the RNA's integrity tested on a 6000 LabChip in a 2100 Bioanalyzer (Agilent Technologies, Palo Alto, Calif.). First strand cDNA synthesis was performed by incubating 1 μg of total RNA with 2.5 μl of 10×RT buffer, 1 μl of 25×dNTPs, 2.5 μl of 10× Primers and 1.25 μl of reverse transcriptase (25 μl final volume) for 10 minutes at 25° C. following 2 hours at 37° C. in a ABI thermal cycler. Ready-to-use primer and probe sets pre-developed by Applied Biosystems (TaqMan Gene Expression Assays) were used to quantify gene expression using R-actin as an endogenous control. Briefly, PCR reactions were performed in duplicate using the Universal TaqMan 2×PCR mastermix in a volume of 20 μl containing 1.25 μl cDNA. Real-time quantitative PCR was performed with an ABI Prism 7900 Sequence Detection System (Applied Biosystems) using the fluorescent TaqMan methodology. Real time PCR results were analyzed with the Sequence Detector Software version 2.1 (Applied Biosystems) and relative quantitation of gene expression was performed using the 2-ΔΔ Ct method. (User Bulletin #2; http://docs.appliedbiosystems.com/pebiodocs/04303859.pdf).
Tissue samples fixed in 10% formalin were embedded in paraffin, cut into 5 μm sections, stained with H&E and analyzed by a registered pathologist unaware of the treatments. Tissue sections were incubated for 10 minutes in 0.5% thiosemicarbazide and stained in 0.1% Sirius Red F3B in saturated picric acid for 1 hour, and subsequently washed with an acetic acid solution (0.5%). Masson's trichrome staining was performed at the Pathology Department of the Hospital Clinic, Barcelona, Spain. […]

[1] = 3 mg/kg in food, 9 weeks (Group IV) vs control Group II
[2] = Group III (1 mg/kg/day), 9 weeks
[3] = Group IV (3 mg/kg/day), 9 weeks

OC(CNc1nc(-c2cc(-c3ccon3)n(Cc3ccccc3F)n2)ncc1F)(C(F)(F)F)C(F)(F)F [Compound B]
Total NAS (1 mg/kg (Group III) vs control group II): reduced | fibrosis as detected using Picrosirius Red staining (1 mg/kg in food, 9 weeks (Group III)): significantly reduced | Total NAS (3 mg/kg (Group IV) vs control group II): reduced | fibrosis as detected using Picrosirius Red staining (3 mg/kg in food, 9 weeks (Group IV)): significantly reduced | liver tissue weight versus total body weight ratio [1]: statistically significant reduction | percentage of white adipose tissue in the liver [1]: statistically significant reduction | reduction of fibrosis by analysis of trichrome stain and α-SMA deposition (1 and 3 mg/kg in food, 9 weeks, FIG. 4): confirmed | macrophage numbers, inflammatory infiltrate by F4/80 immunohistochemistry (Group III (1 mg/kg) vs control group II): decrease | levels of mRNA expression for all markers of liver fibrosis [2]: reduced in a statistically significant manner | levels of mRNA expression for all markers of liver inflammation [2]: reduced in a statistically significant manner | macrophage numbers, inflammatory infiltrate by F4/80 immunohistochemistry (Group IV (3 mg/kg) vs control group II): decrease | levels of mRNA expression for all markers of liver fibrosis [3]: reduced in a statistically significant manner | levels of mRNA expression for all markers of liver inflammation [3]: reduced in a statistically significant manner
